Test results published in patent US12435091B2, “RNA-binding protein multimerization inhibitors and methods of use thereof” (THE UAB RESEARCH FOUNDATION, priority 2020, dated 2025).
Where “and” joins values, the source holds several entries; their conditions need not be identical. Equal values may be shown once. Read-outs that look alike come from different tables or passages of the source.

Tests used:
in vitro = details: human, liver microsomes
Procedure: Selected compounds were assessed for their aqueous solubility, Log D and mouse and human liver microsomal stability.

[1] = tested on: inflammatory cytokines, chemokines and other mediators in primary microglial cells; assay: qPCR of inflammatory mediator mRNAs in LPS-activated primary microglia; type: cell-based, mouse; details: 24 hours
Procedure: Cultured primary microglial cells isolated from neonatal mouse brain were treated with LPS to achieve activation. Cells were then treated with varying doses of SRI-42127 or vehicle for 24 hours. Total RNA was harvested from the cells and various mRNAs were quantified by qPCR as depicted in FIG. 12. Consistent with microglial activation, there were large inductions of inflammatory cytokines, chemokines and other mediators including IL-1β, IL-6, TNF-α, iNOS, IL-10, CXCL1, CXCL2, CXCL10, CCL2, CCL3, and CCL4. These inductions were as high as ˜3500-fold for IL-6.
Major chemokines CXCL1, CXCL2 and CCL3 were suppressed by more than 2-fold. There was a mixed effect on markers of M2-like markers, with TGF-β1 and YM1 increasing and IL-10 decreasing. As these inflammatory factors were secreted, they were quantified by ELISA in culture medium. The greatest effect was with IL-6 which was suppressed at a lower dose of SRI-42127 (1.7-fold at 0.1 μM) and nearly 10-fold at 1.0 μM. IL-1β and TNF-α were suppressed by 5-fold at 1.0 μM.

brain tissue binding = type: in vitro ADME
[2] = tested on: Primary human neuronal cells; assay: cytotoxicity in primary human neurons (morphology, cell number, metabolism, cleaved caspase-3); type: cell-based
Excerpt: PrestoBlue cell viability reagent (ThermoFisher Scientific; Waltham, MA) was used for cell viability assays. The inhibitory dose-response data were normalized to the control (treatment with vehicle); the inhibitory dose-response curves, which were fitted by using Boltzmann equation, and the corresponding IC50s were generated by using OriginPro software (OriginLab Corporation, CA).
At the end of experiments, neurons and astrocytes were rinsed briefly with PBS and fixed by using 4% paraformaldehyde, pH 7.4 for 13 minutes at room temperature. Triton X-100 (0.3%) in PBST buffer (i.e., PBS with 0.1% Tween 20) was used for cell permeabilization for 30 minutes at room temperature. Cells were rinsed with PBST buffer 3 times for 10 minutes after fixation. Blocking buffer (3% BSA, 22.52 mg/ml glycine in PBST) was used to block unspecific antibody binding for 30 minutes at room temperature. Primary cleaved caspase 3 antibody (Cell Signaling Technology; Danvers, MA) at 1:200 dilution in PBST buffer with 1% BSA was utilized overnight at 4° C. for cleaved caspase 3 staining. The next day, cells were rinsed four times for 10 minutes with PBST buffer and then were incubated with secondary antibody (Alexa Fluor 594, goat anti-rabbit IgG, Invitrogen (Carlsbad, CA), 1:2000/5000 dilution) in PBST buffer with 1% BSA for 1 hour at room temperature in the dark. Next, cells were rinsed with PBST buffer 4 times for 10 minutes in the dark. Cell nucleus were stained with DAPI (4′,6-diamidino-2-phenylindole). Cell images were obtained with EVOS Fl (Life Technologies; Eugene, OR) imaging system.
The cellular metabolism declined by about 44% after treatment with SRI-42127, 25 uM for 48 hours as shown by FIG. 5E. […] Therefore, compound SRI-42127 inhibited glioma cell growth and had low neuronal and astrocyte cytotoxicity at concentrations below 15 uM.

[3] = in vivo pharmacokinetic study in mice by ip administration; design: species or system C57Bl/6 mice; details: for concentration at 0.167 h / concentration at 0.5 h / Kp at 0.167 h / Kp at 0.5 h / Kp at 1 h / AUC(0-inf) / AUC(0-t) / Cmax / Tmax / MRT inf / half-life / Brain concentration / Plasma concentration / Ratio (Brain/Plasma) / AUCExtrap—obs: mouse; for concentration at 0.167 h / concentration at 0.5 h / Kp at 0.167 h / Kp at 0.5 h / Kp at 1 h / Brain concentration / Plasma concentration / Ratio (Brain/Plasma): 10 mg/kg IP; for AUC(0-inf) / AUC(0-t) / Cmax / Tmax / MRT inf / half-life: C57Bl/6; for MRT inf: read-out: MRTInf_obs
Procedure: The in vivo PK study for SRI-42127 was performed by Pharmaron (Beijing, China); pharmacokinetics were evaluated in the C57Bl/6 mice. […]

[4] = tested on: Bcl2 and Mcl1 mRNAs in U251 cell line; assay: Taqman quantification of Bcl2/18S and Mcl1/18S mRNA; type: cell-based; details: U251, 10 uM for 24 hours
Procedure: (§1) The HuR-mRNA co-immunoprecipitation (IP) was performed by utilizing RiboCluster Profiler RIP-assay Kit (MBL International). The quantifications of Bcl2, and 18S transcripts were performed using Taqman technique with the following gene-specific probes: Hs00153350_m1, Hs03003631_g1, and Hs00766187_m1 (ThermoFisher Scientific) for Bcl2, 18S, and Mcl1, respectively.
(§2) mRNA isolation and purification from adherent cells were performed using RNeasy Mini Kit and QIAshredder columns (Qiagen, Valencia, CA).
(§3) HuR protein plays a significant role in the stabilization of the mRNAs of the anti-apoptotic Bcl2-family, which contributes to the protection of genetically unstable glioma cells from apoptosis. Therefore, the Bcl2 family was evaluated in the established and PDGx cell lines after cell treatment with SRI-41664 or SRI-42127 compounds. […] The protein levels of Bcl2 and Mcl1 were evaluated in the established U251 and PDGx XD456 glioma cell lines in the control (vehicle treatment) and after treatment with SRI-41664 or SRI-42127 compounds for 48 hours.

[5] = tested on: Bcl2 and Mcl1 mRNAs in LN229 cell line; assay: as above; type: cell-based; details: LN229, 10 uM for 24 hours
Procedure: as §1, §2, §3

[6] = 0.167 h, individual animals, 10 mg/kg
[7] = 0.5 h, individual animals, 10 mg/kg
[8] = 1 h, individual animals, 10 mg/kg

CN(c1ccc2ncc(-c3ccc4cn[nH]c4c3)n2n1)C1CCOCC1 [Compound 19]
half-life (in vitro): 8.6 min | suppression of CCL3 mRNA [1]: more than 2 fold | suppression of CXCL1 mRNA [1]: more than 2 fold | suppression of CXCL2 mRNA [1]: more than 2 fold | suppression of IL-1β mRNA [1]: 5.9 fold | suppression of IL-6 mRNA [1]: 6.8 fold | suppression of TNF-α mRNA [1]: 1.6 fold | suppression of iNOS mRNA [1]: 8 fold | brain tissue binding (brain tissue binding): 99.13% | recovery (brain tissue binding; brain tissue, relatively low due to instability or high nonspecific binding): 69.6% | decline of cellular metabolism ([2]; 25 uM for 48 hours): about 44% | cleaved caspase-3 immunostaining ([2]; neurons, up to 15 uM, 48 hours): no significant alterations | morphological changes of neurons ([2]; up to 15 uM for 48 hours): no morphological changes | neuron cell numbers and cell sprouting ([2]; up to 15 uM for 48 hours, listed as SRI-42127): remained unchanged | concentration at 0.167 h ([3]; C57Bl/6, mouse, brain, ip, 10 mg/kg, 0.167 h, individual animals, read-out: Brain concentration): 1220 ng/g | concentration at 0.5 h ([3]; C57Bl/6, mouse, brain, ip, 10 mg/kg, 0.5 h, individual animals, read-out: Brain concentration): 420 ng/g | Kp ([3]; C57Bl/6, mouse, brain/plasma, ip, 10 mg/kg, mice, ip administration, all time points, read-out: brain/plasma concentration ratio): ~0.4 | Kp at 0.167 h ([3]; C57Bl/6, mouse, brain/plasma, ip, 10 mg/kg, 0.167 h, individual animals, read-out: Ratio (Brain/Plasma)): 0.419 | Kp at 0.167 h ([3]; C57Bl/6, mouse, brain/plasma, ip, 10 mg/kg, 0.167 h, read-out: Ratio (Brain/Plasma) Mean): 0.399 | Kp at 0.5 h ([3]; C57Bl/6, mouse, brain/plasma, ip, 10 mg/kg, 0.5 h, individual animals, read-out: Ratio (Brain/Plasma)): 0.536 | Kp at 0.5 h ([3]; C57Bl/6, mouse, brain/plasma, ip, 10 mg/kg, 0.5 h, read-out: Ratio (Brain/Plasma) Mean): 0.455 | Kp at 1 h ([3]; C57Bl/6, mouse, brain/plasma, ip, 10 mg/kg, 1 h, individual animals, read-out: Ratio (Brain/Plasma)): 0.408 | Kp at 1 h ([3]; C57Bl/6, mouse, brain/plasma, ip, 10 mg/kg, 1 h, read-out: Ratio (Brain/Plasma) Mean): 0.398 | concentration at 0.167 h ([3]; C57Bl/6, mouse, plasma, ip, 10 mg/kg, 0.167 h, individual animals, read-out: Plasma concentration): 2910 ng/mL | concentration at 0.5 h ([3]; C57Bl/6, mouse, plasma, ip, 10 mg/kg, 0.5 h, individual animals, read-out: Plasma concentration): 782 ng/mL | AUC(0-inf) ([3]; 10 mg/kg ip, Brain): 550 ng·h/mL | AUC(0-t) ([3]; 10 mg/kg ip, Brain): 541 ng·h/mL | Cmax ([3]; 10 mg/kg ip, Brain): 1370 ng/mL | Tmax ([3]; 10 mg/kg ip, Brain): 10 min | MRT inf ([3]; 10 mg/kg ip, Brain): 18.8 min | half-life ([3]; 10 mg/kg ip, Brain, read-out: T½ (converted)): 9.6 min | AUC(0-inf) ([3]; 10 mg/kg ip, Plasma): 1340 ng·h/mL | AUC(0-t) ([3]; 10 mg/kg ip, Plasma): 1320 ng·h/mL | Cmax ([3]; 10 mg/kg ip, Plasma): 3460 ng/mL | Tmax ([3]; 10 mg/kg ip, Plasma): 10 min | MRT inf ([3]; 10 mg/kg ip, Plasma): 18.4 min | half-life ([3]; 10 mg/kg ip, Plasma, read-out: T½ (converted)): 9.6 min | half-life ([3]; dose of 10 mg/kg by IP, read-out: half-life (converted)): 9.6 min | brain/plasma concentration ratio ([3]; mice, ip administration, all time points, listed as SRI-42127): 0.42±0.05 | Brain concentration [3, 6]: 1375 ng/g and 1520 ng/g | Plasma concentration [3, 6]: 3450 ng/mL and 4010 ng/mL | Ratio (Brain/Plasma) [3, 6]: 0.379 | Brain concentration [3, 7]: 545 ng/g and 391 ng/g | Plasma concentration [3, 7]: 1430 ng/mL and 870 ng/mL | Ratio (Brain/Plasma) [3, 7]: 0.381 and 0.449 | Brain concentration [3, 8]: 53.0 ng/g and 43.9 ng/g and 19.7 ng/g | Plasma concentration [3, 8]: 130 ng/mL and 104 ng/mL and 53.9 ng/mL | Ratio (Brain/Plasma) [3, 8]: 0.422 and 0.365 | AUCExtrap—obs ([3]; 10 mg/kg ip, Brain): 1.63% | AUCExtrap—obs ([3]; 10 mg/kg ip, Plasma): 1.65% | decrease of Bcl2/18S mRNA ratio [4]: 96±2% | decrease of Mcl1/18S mRNA ratio [4]: 95±3% | decrease of Bcl2/18S mRNA ratio [5]: 95±2% | decrease of Mcl1/18S mRNA ratio [5]: 87±8%
